Numbered stars: 1 amine (or outer) side, 2 acyl side, 3 side chain; on linkers, the order of the positions; unused ones are H or OH. Side chains are listed from the residue outwards. Peptide text beside a SMILES is read from it. * marks the point of attachment. C20 diacid = O=C(O)CCCCCCCCCCCCCCCCCCC(=O)*; γGlu = O=C(O)[C@H](CCC(=O)[*:2])N[*:1]; AEEA = NCCOCCOCC(=O)O
Assay: Pharmacokinetic study in minipigs after intravenous administration
Type: in vivo
Settings: female, Göttingen, minipig, plasma, i.v., 2 nmol/kg, harmonic mean, read-out: Terminal half-life (converted)
From the text: The purpose of this investigation was to determine the in vivo half-life of the compounds of the invention after i.v. administration to minipigs using a pharmacokinetic (PK) study in Göttingen Minipigs assessing terminal half-life. The expression ‘terminal half-life’ as used herein, and means the time period required to reduce the plasma concentration by 50%, measured after the initial distribution phase.
Animals and housing: Female Göttingen Minipigs, weighing approximately 15-25 kg, were obtained from Ellegaard Minipigs, Dalmose Denmark. The minipigs were housed individually in the Animal Unit at BioAdvice A/S, ∅lstykke Denmark (later Minerva Imaging A/S) and were fed restrictedly twice daily with Altromin 9033 (Chr. Petersen A/S, Ringsted, Denmark). […]
Administration of peptides and dosing solutions: There were no food restrictions during the study and the animals had ad libitum access to water during the whole study period. […] The plasma samples were analysed as described below.
Quantitative Assay for Plasma Samples: The test compound was assayed in plasma by turbulent flow chromatography coupled to liquid chromatography mass spectrometric (LCMS) detection. The selectivity of the method allowed various test compounds to be quantitated in one sample, e.g. cassette dosing. […]

Row | half-life [h] | Structure (SMILES)
1 | 96 | CC[C@H](C)[C@H](NC(=O)[C@H](CCC(=O)O)NC(=O)[C@H](C)NC(=O)[C@H](CC(N)=O)NC(=O)[C@@H](NC(=O)[C@@H](NC(=O)[C@H](C)NC(=O)[C@H](CCC(N)=O)NC(=O)[C@H](CCC(=O)O)NC(=O)[C@H](CCCNC(=N)N)NC(=O)[C@H](C)NC(=O)[C@H](C)NC(=O)[C@H](CCCNC(=N)N)NC(=O)[C@H](C)NC(=O)[C@H](CCCNC(=N)N)NC(=O)[C@H](C)NC(=O)[C@H](CCC(N)=O)NC(=O)[C@H](CCC(=O)O)NC(=O)[C@H](CC(C)C)NC(=O)[C@H](CC(C)C)NC(=O)[C@@H](NC(=O)[C@H](CCC(N)=O)NC(=O)[C@H](CC(C)C)NC(=O)[C@H](CC(C)C)NC(=O)CNC(=O)[C@@H](NC(=O)[C@@H]1CCCN1C(=O)[C@@H](NC(=O)[C@H](CC(=O)O)NC(=O)[C@H](CC(C)C)NC(=O)[C@H](CO)NC(=O)[C@H](CC(C)C)NC(=O)[C@@H](NC(=O)[C@@H](NC(=O)[C@@H](N)CCCCNC(=O)COCCOCCNC(=O)COCCOCCNC(=O)CC[C@H](NC(=O)CC[C@H](NC(=O)CC[C@H](NC(=O)CCCCCCCCCCCCCCCCCCC(=O)O)C(=O)O)C(=O)O)C(=O)O)[C@@H](C)CC)C(C)C)C(C)C)[C@@H](C)CC)[C@@H](C)CC)[C@@H](C)O)[C@@H](C)O)C(=O)N[C@@H](CC(C)C)C(=O)N[C@@H](C)C(=O)N[C@@H](CCC(=O)O)C(=O)N[C@H](C(N)=O)C(C)C [Compound 3] (H-K([AEEA-AEEA-γGlu-γGlu-γGlu-C20 diacid])IVLSLDVPIGLLQILLEQARARAAREQATTNAEILAEV-NH2)
2 | 103 | CC[C@H](C)[C@H](NC(=O)[C@H](CCC(=O)O)NC(=O)[C@H](C)NC(=O)[C@H](CC(N)=O)NC(=O)[C@@H](NC(=O)[C@@H](NC(=O)[C@H](C)NC(=O)[C@H](CCC(N)=O)NC(=O)[C@H](CCC(=O)O)NC(=O)[C@H](CCCNC(=N)N)NC(=O)[C@H](C)NC(=O)[C@H](C)NC(=O)[C@H](CCCNC(=N)N)NC(=O)[C@H](C)NC(=O)[C@H](CCCNC(=N)N)NC(=O)[C@H](C)NC(=O)[C@H](CCC(N)=O)NC(=O)[C@H](CCC(=O)O)NC(=O)[C@H](CC(C)C)NC(=O)[C@H](CC(C)C)NC(=O)[C@@H](NC(=O)[C@H](CCC(N)=O)NC(=O)[C@H](CC(C)C)NC(=O)[C@H](CC(C)C)NC(=O)CNC(=O)[C@@H](NC(=O)[C@@H]1CCCN1C(=O)[C@@H](NC(=O)[C@H](CC(=O)O)NC(=O)[C@H](CC(C)C)NC(=O)[C@H](CO)NC(=O)[C@H](CC(C)C)NC(=O)[C@@H](NC(=O)[C@@H](NC(=O)[C@@H](N)CCCCNC(=O)COCCOCCNC(=O)COCCOCCNC(=O)CC[C@H](NC(=O)CC[C@H](NC(=O)CC[C@H](NC(=O)CCCCCCCCCCCCCCCCCCC(=O)O)C(=O)O)C(=O)O)C(=O)O)[C@@H](C)CC)C(C)C)C(C)C)[C@@H](C)CC)[C@@H](C)CC)[C@@H](C)O)[C@@H](C)O)C(=O)N[C@@H](CC(C)C)C(=O)N[C@@H](CCC(=O)O)C(=O)N[C@@H](CCCNC(=N)N)C(=O)N[C@H](C(N)=O)C(C)C [Compound 4] (H-K([AEEA-AEEA-γGlu-γGlu-γGlu-C20 diacid])IVLSLDVPIGLLQILLEQARARAAREQATTNAEILERV-NH2)
